Values of other authors as cited in PubChem BioAssay AID1259409 (Chemical Carcinogenesis Research Information System (CCRIS), 2018).

Tested on: rodent chemically induced tumor inhibition, incidence and multiplicity
Assay: CCRIS tumor inhibitor studies
Details: for tumour outcome (control, treated, inhibition, significance): Carcinogen: N-ETHYL-N-NITROSOUREA, 759-73-9, Dose [Inhibitor]: 0, Route [Inhibitor]: ORAL, Species: RAT, Strain/Sex: ALBINO/MALE, FEMALE, Dose [Carcinogen]: 75 MG/KG BW ADMINISTERED INTRAPERITONEALLY TO MOTHERS 21 D POST CONCEPTION, Promoter: NONE USED

| Compound | tumour outcome (control, treated, inhibition, significance) (1000 MG/L IN DRINKING WATER FOR 12 MO ADMINISTERED TO CARCINOGEN-TREATED MOTHERS (STUDY DURATION: 12 MO), Target Tissue: Type of Lesion: PERIPHERAL NERVES: TUMOR) | tumour outcome (control, treated, inhibition, significance) (1000 MG/L IN DRINKING WATER FOR 12 MO ADMINISTERED TO OFFSPRING OF CARCINOGEN-TREATED MOTHERS (STUDY DURATION: 12 MO), Target Tissue: Type of Lesion: BRAIN: TUMOR) | tumour outcome (control, treated, inhibition, significance) (1000 MG/L IN DRINKING WATER FOR 12 MO ADMINISTERED TO OFFSPRING OF CARCINOGEN-TREATED MOTHERS (STUDY DURATION: 12 MO), Target Tissue: Type of Lesion: KIDNEY: TUMOR) | tumour outcome (control, treated, inhibition, significance) (1000 MG/L IN DRINKING WATER FOR 12 MO ADMINISTERED TO OFFSPRING OF CARCINOGEN-TREATED MOTHERS (STUDY DURATION: 12 MO), Target Tissue: Type of Lesion: SPINAL CHORD: TUMOR) | outcome (Carcinogen: Vinyl carbamate, 15805-73-9, Dose [Inhibitor]: 50 mg/kg once at beginning of experiment (Study duration: 25 wk), Route [Inhibitor]: Oral, Species: Mouse, Strain/Sex: F1 (Big Blue x A/J), Target Tissue: Type of Lesion: Lung: Papilliary tumors and solid tumors, Dose [Carcinogen]: 60 mg/kg once 2 hr after inhibitor (Study duration: 25 wk), Promoter: None) |
| --- | --- | --- | --- | --- | --- |
| NCCCCCC(=O)O | 24/63 (38%), 7/33 (21%), 45%, not significant | 53/63 (84%), 21/33 (64%), 24%, p<0.05 | 23/63 (37%), 7/33 (21%), 43%, not significant | 17/63 (27%), 15/33 (45%), -67%, not significant |  |
| C=CCS(=O)(=O)CC=C |  |  |  |  | papilliary tumors: 84 (58%), 21 (13.5%), p<0.01 (significant decrease). solid tu |
